{"source": "patent US5928185A", "about": "“Iontophoresis device for the transcutaneous delivery of an active principle such as an anionic oligosaccharide” (Sanofi, priority 1995, dated 1999)", "experiment": "Administration of pentasaccharide sodium salt to minipigs by iontophoresis with periodic current reversal; plasma levels (Example 4)", "type": "in vivo, minipig", "protocol": "Administration to minipigs of the sodium salt of a pentasaccharide by iontophoresis with set current density with periodic reversal of the current direction.\nThe following iontophoretic administration tests were carried out on 4 minipigs by using the same current generator and the same type of electrodes as in Example 3, and by applying the following conditions:\nThe electrodes themselves consisted of 15 μm thick silver films chlorided by electrolytic oxidation in a ratio of 0.5 mAh of silver chloride per cm^2. The reservoirs, also measuring 20 cm^2, consisted of a sheet of blotting paper made of cellulose fibres supplemented with polypropylene fibrils, impregnated to a level of 50 mg/cm^2 with an aqueous solution containing 2% by weight of pentasaccharide and 0.2% by weight of NaCl. Each electrode, the anode and the cathode, contained in all 1 g of solution, i.e. 20 mg of pentasaccharide (1 mg/cm^2) for an active surface area of 20 cm^2. 40 mg of pentasaccharide were therefore engaged in all per animal.\nThe current generator delivered a constant intensity of 2.5 mA, i.e. 125 μA/cm^2 of direct current with regular reversals of the current direction every 30 minutes for a total time of 8 hours, corresponding to the passage of […] of direct current.\nEach of the electrodes, having identical structure and composition, was therefore operated alternately as the cathode and then as the anode, the presence of sodium chloride in each of the reservoirs ensuring their permanent operation as a reversible electrode, thus avoiding any parasitic reaction of hydrolysis (with a change in the pH) or oxidation/reduction of the active principle.\nIn test 4a, involving 3 animals with an average weight of 11.8 kg, the electrodes were put in place but not connected to the current generator, whereas for all the tests 4b, which concerned 4 animals with an average weight of 12.3 kg, the current of 2.5 mA was applied for 8 hours with automated reversal of the current direction every half hour.\nIn tests 4a and 4b, a number of blood samples were taken periodically up to 30 hours after the start of each experiment, as in Example 3.\nThe plasma levels of the various samples are indicated in Table IV for the purpose of comparing tests 4a and 4b with one another and with the results of the tests carried out in Example 3, in particular tests 3c and 3d which correspond to intravenous and subcutaneous injections.", "key": {"[1]": {"conditions": "test 4b: iontophoresis 0.125 mA/cm^2, 8 hours, reversal every 30 minutes"}}, "data": [{"smiles": "O=C(O)C1OC(OC2C(COS(=O)(=O)O)OC(OC3C(C(=O)O)OC(OC4C(COS(=O)(=O)O)OC(O)C(NS(=O)(=O)O)C4O)C(OS(=O)(=O)O)C3O)C(NS(=O)(=O)O)C2OS(=O)(=O)O)C(O)C(O)C1OC1OC(COS(=O)(=O)O)C(O)C(O)C1NS(=O)(=O)O", "note": "(stereo not shown) [pentasaccharide]", "values": [{"measurement": "bioavailability", "setting": "minipig, plasma, topical, test 4b, 40 mg engaged", "value": "~21", "unit": "%"}, {"measurement": "average quantity of pentasaccharide administered during the treatment", "setting": "passive test 4a", "value": "zero"}, {"measurement": "Initial plasma level", "setting": "test 4a: passive, 0 mA/cm^2", "value": 0, "unit": "anti-Xa U/mL"}, {"measurement": "Plasma level at 30 minutes", "setting": "test 4a: passive, 0 mA/cm^2", "value": 0}, {"measurement": "Plasma level at 1 hour", "setting": "test 4a: passive, 0 mA/cm^2", "value": 0}, {"measurement": "Plasma level at 2 hours", "setting": "test 4a: passive, 0 mA/cm^2", "value": 0}, {"measurement": "Plasma level at 4 hours", "setting": "test 4a: passive, 0 mA/cm^2", "value": 0}, {"measurement": "Plasma level at 6 hours", "setting": "test 4a: passive, 0 mA/cm^2", "value": 0}, {"measurement": "Plasma level at 8 hours", "setting": "test 4a: passive, 0 mA/cm^2", "value": 0}, {"measurement": "Plasma level at 10 hours", "setting": "test 4a: passive, 0 mA/cm^2", "value": 0}, {"measurement": "Plasma level at 12 hours", "setting": "test 4a: passive, 0 mA/cm^2", "value": 0}, {"measurement": "Plasma level at 16 hours", "setting": "test 4a: passive, 0 mA/cm^2", "value": 0}, {"measurement": "Plasma level at 26 hours", "setting": "test 4a: passive, 0 mA/cm^2", "value": 0}, {"measurement": "Plasma level at 30 hours", "setting": "test 4a: passive, 0 mA/cm^2", "value": 0}, {"measurement": "quantity of pentasaccharide administered per mAh", "setting": "test 4b", "value": 372, "unit": "μg/cm^2"}, {"measurement": "Initial plasma level", "setting": "[1]", "value": 0, "unit": "anti-Xa U/mL"}, {"measurement": "Plasma level at 30 minutes", "setting": "[1]", "value": "0.11 ± 0.05"}, {"measurement": "Plasma level at 1 hour", "setting": "[1]", "value": "0.16 ± 0.05"}, {"measurement": "Plasma level at 2 hours", "setting": "[1]", "value": "0.28 ± 0.1"}, {"measurement": "Plasma level at 4 hours", "setting": "[1]", "value": "0.64 ± 0.2"}, {"measurement": "Plasma level at 6 hours", "setting": "[1]", "value": "0.57 ± 0.18"}, {"measurement": "Plasma level at 8 hours", "setting": "[1]", "value": "0.59 ± 0.15"}, {"measurement": "Plasma level at 10 hours", "setting": "[1]", "value": "0.61 ± 0.16"}, {"measurement": "Plasma level at 12 hours", "setting": "[1]", "value": "0.58 ± 0.05"}, {"measurement": "Plasma level at 16 hours", "setting": "[1]", "value": "0.2 ± 0.05"}, {"measurement": "Plasma level at 26 hours", "setting": "[1]", "value": "0.14 ± 0.02"}, {"measurement": "Plasma level at 30 hours", "setting": "[1]", "value": "0.05 ± 0.02"}, {"measurement": "average quantity of pentasaccharide administered during the treatment", "setting": "test 4b, from area under the curve", "value": "8.45 ± 1.5", "unit": "mg"}]}]}
